Consider six substances from patent US7071293B1, “Alpha helical peptides with broad spectrum antimicrobial activity that are insensitive to salt” (priority 1999, dated 2006).

One assay has as its system E. coli ML-35p. The note with it: Table 15; for E. coli ML-35p MIC, 0 mM NaCl: underlay 0 mM NaCl; for E. coli ML-35p MIC, 175 mM NaCl: underlay 175 mM NaCl.
Another assay deals with E. coli DH-5α. The note with it: DH-5α.
For the next assay, the system named is MRSA ATCC 33591. Particulars: ATCC 33591.
The subject of another assay is P. aeruginosa MR 3007. The note with it: MR 3007.
The next assay has as its system S. aureus 930918-3. Particulars: 930918-3.
The next assay deals with N. gonorrhoeae. Put plainly: Two stage radial diffusion assay (MIC). The assay is classed as cell-based. Details: unit not given here. Particulars: done only at 100 mM NaCl; for N. gonorrhoeae F 62 (serum-sensitive): strain F 62 (serum-sensitive); for N. gonorrhoeae FA 19 (serum-resistant): strain FA 19 (serum-resistant).
The test system of the next assay is L. monocytogenes EGD. Nature of the assay: Two stage radial diffusion assay (MIC). The assay is classed as cell-based. Details: unit not given here. The note with it: underlay 0 mM NaCl.
For another assay, the system named is B. cepacia ATCC 25416. Nature of the assay: Two stage radial diffusion assay (MIC). The assay is classed as cell-based. Also noted: unit not given here. Particulars: underlay 0 mM NaCl.

Ends that are not written are not given here. Some results are limits rather than exact numbers.

For the substance LRRIIRKIIHIIK-NH2 [Peptide 15], in the assay on E. coli ML-35p, the “E. coli ML-35p MIC, 0 mM NaCl” value came to 0.64 ± 0.15 µg/mL and the “E. coli ML-35p MIC, 175 mM NaCl” value was 12.6 ± 2.8 µg/mL. Moreover, in the assay on E. coli DH-5α, the “E. coli DH-5α MIC, 0 mM NaCl” value was 0.82 ± 0.12 µg/mL and the “E. coli DH-5α MIC, 175 mM NaCl” value was 5.35 ± 1.87 µg/mL. In addition, in the assay on P. aeruginosa PA-01, the “P. aeruginosa PA-01 MIC, 0 mM NaCl” value worked out at 1.07 ± 0.19 µg/mL and the “P. aeruginosa PA-01 MIC, 175 mM NaCl” value is 4.66 ± 1.57 µg/mL. Further, in the assay on MRSA ATCC 33591, the “MRSA ATCC 33591 MIC, 0 mM NaCl” value was determined as 2.49 ± 0.27 µg/mL and the “MRSA ATCC 33591 MIC, 175 mM NaCl” value worked out at 65.8 ± 13.3 µg/mL. Moreover, in the assay on P. aeruginosa MR 3007, the “P. aeruginosa MR-3007 MIC, 0 mM NaCl” value is 0.96 ± 0.08 µg/mL and the “P. aeruginosa MR-3007 MIC, 175 mM NaCl” value came to 9.14 ± 4.81 µg/mL. In the assay on S. aureus 930918-3, the “S. aureus 930918-3 MIC, 0 mM NaCl” value turned out to be 1.32 ± 0.22 µg/mL and the “S. aureus 930918-3 MIC, 175 mM NaCl” value was 6.39 ± 1.12 µg/mL.
Take RKFRNKIKEKLKKIG [Peptide 24]: the “E. coli ML-35p MIC, 0 mM NaCl” value in the assay on E. coli ML-35p worked out at 9.7 µg/mL. In the assay on N. gonorrhoeae, the “N. gonorrhoeae F 62 (serum-sensitive)” value is above 250 and the “N. gonorrhoeae FA 19 (serum-resistant)” value was above 250. Moreover, in the assay with L. monocytogenes EGD, the “L. monocytogenes in underlays of low, normal and high salinity, 0 mM NaCl” value is recorded as 24.1. The “B. cepacia ATCC 25416 in underlays of low, normal and high salinity, 0 mM NaCl” value with B. cepacia ATCC 25416 is above 250. Also, the “MRSA ATCC 33591 MIC, 0 mM NaCl” value in the assay on MRSA ATCC 33591 was above 250 µg/mL. Moreover, the “P. aeruginosa MR-3007 MIC, 0 mM NaCl” value with P. aeruginosa MR 3007 was 5.1 µg/mL. Also, in the assay on S. aureus 930918-3, the “S. aureus 930918-3 MIC, 0 mM NaCl” value stood at 19.5 µg/mL.
Consider RRIIRKIIHIIK-NH2 [Peptide 17], for which, in the assay with E. coli ML-35p, the “E. coli ML-35p MIC, 0 mM NaCl” value is 0.29 ± 0.06 µg/mL and the “E. coli ML-35p MIC, 175 mM NaCl” value is above 79.1 µg/mL. In the assay on E. coli DH-5α, the “E. coli DH-5α MIC, 0 mM NaCl” value was found to be 0.51 ± 0.09 µg/mL and the “E. coli DH-5α MIC, 175 mM NaCl” value came to 46.1 ± 16.1 µg/mL. In addition, in the assay with P. aeruginosa PA-01, the “P. aeruginosa PA-01 MIC, 0 mM NaCl” value was 0.69 ± 0.08 µg/mL and the “P. aeruginosa PA-01 MIC, 175 mM NaCl” value worked out at 17.2 ± 4.6 µg/mL. Moreover, in the assay on MRSA ATCC 33591, the “MRSA ATCC 33591 MIC, 0 mM NaCl” value was 11.9 ± 4.7 µg/mL and the “MRSA ATCC 33591 MIC, 175 mM NaCl” value is above 79.1 µg/mL. Also, in the assay on P. aeruginosa MR 3007, the “P. aeruginosa MR-3007 MIC, 0 mM NaCl” value was 0.72 ± 0.15 µg/mL and the “P. aeruginosa MR-3007 MIC, 175 mM NaCl” value is above 79.1 µg/mL. In the assay on S. aureus 930918-3, the “S. aureus 930918-3 MIC, 0 mM NaCl” value amounted to 2.29 ± 0.07 µg/mL and the “S. aureus 930918-3 MIC, 175 mM NaCl” value is above 79.1 µg/mL.
RKRLRKFRNKIKEKLKKIGQKI [Peptide 21]: in the assay on E. coli ML-35p, the “E. coli ML-35p MIC, 0 mM NaCl” value is 0.2 µg/mL. Besides, in the assay on N. gonorrhoeae, the “N. gonorrhoeae F 62 (serum-sensitive)” value is recorded as 22.0 and the “N. gonorrhoeae FA 19 (serum-resistant)” value is on record as above 250. In the assay on L. monocytogenes EGD, the “L. monocytogenes in underlays of low, normal and high salinity, 0 mM NaCl” value is listed as 7.0. In addition, the “B. cepacia ATCC 25416 in underlays of low, normal and high salinity, 0 mM NaCl” value in the assay with B. cepacia ATCC 25416 is given as above 250. Besides, the “MRSA ATCC 33591 MIC, 0 mM NaCl” value with MRSA ATCC 33591 was 8.1 µg/mL. In the assay on P. aeruginosa MR 3007, the “P. aeruginosa MR-3007 MIC, 0 mM NaCl” value came out at 0.2 µg/mL. Also, in the assay with S. aureus 930918-3, the “S. aureus 930918-3 MIC, 0 mM NaCl” value was determined as 7.9 µg/mL.
Consider LRRIIRKIIHIIKK [Peptide 12], for which, in the assay with E. coli ML-35p, the “E. coli ML-35p MIC, 0 mM NaCl” value came to 0.68 ± 0.07 µg/mL and the “E. coli ML-35p MIC, 175 mM NaCl” value is above 79.1 µg/mL. In the assay with E. coli DH-5α, the “E. coli DH-5α MIC, 0 mM NaCl” value came to 1.36 ± 0.19 µg/mL and the “E. coli DH-5α MIC, 175 mM NaCl” value worked out at 19.1 ± 5.0 µg/mL. Also, in the assay with P. aeruginosa PA-01, the “P. aeruginosa PA-01 MIC, 0 mM NaCl” value was determined as 0.98 ± 0.05 µg/mL and the “P. aeruginosa PA-01 MIC, 175 mM NaCl” value amounted to 11.9 ± 4.7 µg/mL. Besides, in the assay on MRSA ATCC 33591, the “MRSA ATCC 33591 MIC, 0 mM NaCl” value stood at 11.0 ± 3.96 µg/mL and the “MRSA ATCC 33591 MIC, 175 mM NaCl” value was above 79.1 µg/mL. Moreover, in the assay with P. aeruginosa MR 3007, the “P. aeruginosa MR-3007 MIC, 0 mM NaCl” value stood at 0.98 ± 0.08 µg/mL and the “P. aeruginosa MR-3007 MIC, 175 mM NaCl” value was determined as 46.3 ± 9.1 µg/mL. Besides, in the assay on S. aureus 930918-3, the “S. aureus 930918-3 MIC, 0 mM NaCl” value is 2.40 ± 0.17 µg/mL and the “S. aureus 930918-3 MIC, 175 mM NaCl” value came to 79.1 ± 0 µg/mL.
IRRIIRKIIHIIKK-NH2 [Peptide 13]: in the assay with P. aeruginosa PA-01, the “P. aeruginosa PA-01 MIC, 0 mM NaCl” value came to 1.03 ± 0.08 µg/mL and the “P. aeruginosa PA-01 MIC, 175 mM NaCl” value amounted to 7.45 ± 0.87 µg/mL. In the assay with MRSA ATCC 33591, the “MRSA ATCC 33591 MIC, 0 mM NaCl” value is 2.39 ± 0.07 µg/mL and the “MRSA ATCC 33591 MIC, 175 mM NaCl” value is above 79.1 µg/mL. For the same substance, in the assay with P. aeruginosa MR 3007, the “P. aeruginosa MR-3007 MIC, 0 mM NaCl” value turned out to be 0.84 ± 0.06 µg/mL and the “P. aeruginosa MR-3007 MIC, 175 mM NaCl” value is 19.7 ± 2.2 µg/mL. Further, in the assay on S. aureus 930918-3, the “S. aureus 930918-3 MIC, 0 mM NaCl” value stood at 1.03 ± 0.03 µg/mL and the “S. aureus 930918-3 MIC, 175 mM NaCl” value came to 5.93 ± 1.12 µg/mL.
